Measurements as given in US20070135499A1 (Aerie Pharmaceuticals, Inc., priority 2005, published 2007).

Biological target: T1, hGRK-2 (Homo sapiens, UniProt P25098)
T1 sequence (P25098 1-689): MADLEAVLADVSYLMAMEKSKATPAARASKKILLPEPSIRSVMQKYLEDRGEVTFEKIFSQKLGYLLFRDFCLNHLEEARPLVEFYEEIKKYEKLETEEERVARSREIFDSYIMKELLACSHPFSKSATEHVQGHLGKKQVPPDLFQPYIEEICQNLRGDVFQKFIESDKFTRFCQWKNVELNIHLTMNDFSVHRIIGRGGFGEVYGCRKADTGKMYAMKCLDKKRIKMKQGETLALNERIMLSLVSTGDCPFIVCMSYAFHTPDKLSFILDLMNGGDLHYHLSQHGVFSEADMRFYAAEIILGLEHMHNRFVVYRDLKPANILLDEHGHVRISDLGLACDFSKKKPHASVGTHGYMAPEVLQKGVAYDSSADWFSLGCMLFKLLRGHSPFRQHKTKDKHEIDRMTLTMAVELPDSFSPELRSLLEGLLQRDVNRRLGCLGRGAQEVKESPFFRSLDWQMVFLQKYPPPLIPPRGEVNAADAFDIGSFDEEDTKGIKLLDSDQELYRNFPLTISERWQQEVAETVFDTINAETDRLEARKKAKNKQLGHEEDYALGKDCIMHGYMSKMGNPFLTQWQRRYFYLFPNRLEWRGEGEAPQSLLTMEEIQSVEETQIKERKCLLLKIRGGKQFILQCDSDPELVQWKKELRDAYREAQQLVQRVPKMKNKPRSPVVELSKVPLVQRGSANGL
Assay: luciferase-based (Kinase-Glo) biochemical kinase inhibition assay, hGRK-2
Conditions: luciferase assay, casein substrate, 10 μM ATP; read-out: GRK-2 inhibition, Ki class
Method: The inhibition of G-protein-coupled receptor kinases including hGRK-2 was determined for the hydrazide compounds using a biochemical assay. The inhibition of GRK-3, GRK-5 and GRK-6 was also determined using the same assay for some of the hydrazide derivatives.
The protein kinase inhibition was determined using a biochemical assay utilizing the light emission of a luciferase reaction. The luciferase-based assay operates on the following reaction principles: [drawing 10]
An inhibitor of GRK-2 will increase in the amount of ATP in solution, as shown. Thus, an inhibitor of GRK-2 will drive the luciferase reaction to the right, resulting in more light emitted. The amount of light emitted is proportional to the inhibition resulting from the GRK-2 inhibitor. The luciferase-based assay was also used to test some of the hydrazides for the inhibition properties towards other kinases.
The test procedure was as follows:
• 50 mM HEPES, pH 7.5 • 10 mM MgCl2 • 100 μM activated sodium orthovanadate • 0.01% CHAPS • 0.1% BSA • 1 mM DTT (added fresh daily) 10× Assay Buffer Stock: • 500 mM HEPES, pH 7.5 • 100 mM MgCl2 • 1 mM activated sodium orthovanadate • 0.1% CHAPS • 1% BSA (leave out for 10× compound dilution buffer) Final Assay Conditions: • 50 μM test compound • 20 μM casein • 10 μM ATP • 50 nM hGRK2 • 4.5% DMSO • 90-120 minute incubation
Stopped by addition of 30 μl 3×-diluted Kinase-Glo reagent containing 0.01% trypan blue. Counted on FUSION plate reader.
Compound Dilution and Transfer
Prepare sufficient buffer containing 40% DMSO to add 20 μl/well to the number of plates being assayed. This buffer should not contain BSA because it will precipitate with addition of 40% DMSO. (EXAMPLE: To make 3000 ml compound dilution buffer: 1200 ml DMSO, 180 ml 10× compound dilution buffer, 1615 ml ultrapure water, 3 ml 1M DTT.).
Using Multidrop, add 20 μl of compound dilution buffer to all wells of the 384-well daughter plate (add 1 μl DMSO to control wells). This will result in a daughter plate which contains 21 μl of ˜500 μM test compound.
Using the PlateTrak, transfer 5 μl of the test compounds to a 384-well, non-binding, white microtiter plate.
Prepare sufficient volume of buffer (with BSA and 1 mM DTT) containing 125 nM GRK2 and 25 μM ATP. (Example: To 219 ml of buffer was added 550 μl 10 mM ATP and 350 μl 79 μM GRK2).
Using Multidrop, add 20 μl of GRK2/ATP mixture to all wells of the microtiter plate.
Prepare sufficient volume of buffer (with BSA and 1 mM DTT) containing 40 μM casein. (EXAMPLE: To 211 ml buffer add 8.8 ml 1 mM casein)
Using Multidrop, add 25 μl to columns 1 through 23 of the microtiter plate. Add 25 μl of complete buffer to column 24 (blanks).
Mix reaction gently by tapping (Multidrop addition of casein does a decent job of mixing), stack plates and incubate at room temperature for between 90 and 120 minutes. Assay progression can be tracked in a separate plate if desired. Target 20-30% ATP consumption. Try to avoid exceeding 40% consumption as kinetics might become non-linear due to substrate (ATP) depletion.
Addition of Kinase-Glo Reagents
The Kinase-Glo reagent can be diluted 3-fold with no loss of data quality in this assay. Additionally, since the library contains many colored compounds which will quench the light emitted from the well resulting in a false negative (kinase inhibitors result in less ATP consumption thus more light emitted), the entire reaction is subject to intentional quench to override this effect. This intentional quench is accomplished by the addition of 0.01% trypan blue to the Kinase-Glo reagents. (EXAMPLE: 100 ml 1× Kinase-Glo reagents (prepared according to product insert), 200 ml assay buffer, 7.5 ml 0.4% trypan blue.
Using Multidrop, add 30 μl to all wells of the assay plate.
Count on FUSION plate reader in luminescence mode.

## O=C(CNc1cccc(Oc2ccc(OC(F)(F)F)cc2)c1)NN=Cc1ccncc1 (mixture of isomers) [Example 77, [3-(4-Trifluoromethoxy-phenoxy)-phenylamino]-acetic acid [1-pyridin-4-yl-meth-(E/Z)-ylidene]-hydrazide]
  Ki: 100 to 1000 nM

## COc1ccc(Oc2cccc(NCC(=O)NN=Cc3ccncc3)c2)cc1 (mixture of isomers) [Example 81]
  Ki: 10 to 100 nM

## O=C(CNc1ccccc1)N/N=C/c1c(Cl)cncc1Cl [Example 2, Phenylamino-acetic acid [1-(3,5-dichloro-pyridin-4-yl)-meth-(E)-ylidene]-hydrazide]
  Ki: 100 to 1000 nM

## N#Cc1cccc(NCC(=O)N/N=C/c2c(Cl)cncc2Cl)c1 [Example 3, (3-Cyano-phenylamino)-acetic acid [1-(3,5-dichloro-pyridin-4-yl)-meth-(E)-ylidene]-hydrazide]
  Ki: 1000 to 10000 nM

## O=C(CNc1cccc(Br)c1)N/N=C/c1c(Cl)cncc1Cl [Example 6, (3-Bromo-phenylamino)-acetic acid [1-(3,5-dichloro-pyridin-4-yl)-meth-(E)-ylidene]-hydrazide]
  Ki: 1000 to 10000 nM

## O=C(CNc1cccc([N+](=O)[O-])c1)N/N=C/c1c(Cl)cncc1Cl [Example 7, (3-Nitro-phenylamino)-acetic acid [1-(3,5-dichloro-pyridin-4-yl)-meth-(E)-ylidene]-hydrazide]
  Ki: 1000 to 10000 nM

## Cc1cccc(NCC(=O)N/N=C/c2c(Cl)cncc2Cl)c1 [Example 8, m-Tolylamino-acetic acid [1-(3,5-dichloro-pyridin-4-yl)-meth-(E)-ylidene]-hydrazide]
  Ki: 1000 to 10000 nM

## O=C(CNc1cccc(I)c1)N/N=C/c1c(Cl)cncc1Cl [Example 11, (3-Iodo-phenylamino)-acetic acid [1-(3,5-dichloro-pyridin-4-yl)-meth-(E)-ylidene]-hydrazide]
  Ki: 1000 to 10000 nM

## O=C(CNc1cccc(C(F)(F)F)c1)N/N=C/c1c(Cl)cncc1Cl [Example 12, (3-Trifluoromethyl-phenylamino)-acetic acid [1-(3,5-dichloro-pyridin-4-yl)-meth-(E)-ylidene]-hydrazide]
  Ki: > 10000 nM

## O=C(CNc1ccc(F)cc1)N/N=C/c1c(Cl)cncc1Cl [Example 14, (4-Fluoro-phenylamino)-acetic acid [1-(3,5-dichloro-pyridin-4-yl)-meth-(E)-ylidene]-hydrazide]
  Ki: 1000 to 10000 nM

## CC(C)c1cccc(NCC(=O)N/N=C/c2c(Cl)cncc2Cl)c1 [Example 16, (3-Isopropyl-phenylamino)-acetic acid [1-(3,5-dichloro-pyridin-4-yl)-meth-(E)-ylidene]-hydrazide]
  Ki: > 10000 nM

## Cc1ccc(NCC(=O)N/N=C/c2c(Cl)cncc2Cl)cc1 [Example 17, p-Tolylamino-acetic acid [1-(3,5-dichloro-pyridin-4-yl)-meth-(E)-ylidene]-hydrazide]
  Ki: 1000 to 10000 nM

## O=C(CNc1ccc(Cl)cc1)N/N=C/c1c(Cl)cncc1Cl [Example 18, (4-Chloro-phenylamino)-acetic acid [1-(3,5-dichloro-pyridin-4-yl)-meth-(E)-ylidene]-hydrazide]
  Ki: 1000 to 10000 nM

## CC(C)Oc1cccc(NCC(=O)N/N=C/c2c(Cl)cncc2Cl)c1 [Example 19, (3-Isopropoxy-phenylamino)-acetic acid [1-(3,5-dichloro-pyridin-4-yl)-meth-(E)-ylidene]-hydrazide]
  Ki: 1000 to 10000 nM

## CS(=O)(=O)c1cccc(NCC(=O)N/N=C/c2c(Cl)cncc2Cl)c1 [Example 23, (3-Methanesulfonyl-phenylamino)-acetic acid [1-(3,5-dichloro-pyridin-4-yl)-meth-(E)-ylidene]-hydrazide]
  Ki: 1000 to 10000 nM

## CS(=O)(=O)Nc1cccc(NCC(=O)N/N=C/c2c(Cl)cncc2Cl)c1 [Example 24]
  Ki: 1000 to 10000 nM

## Cc1ccccc1NCC(=O)N/N=C/c1c(Cl)cncc1Cl [Example 25, o-Tolylamino-acetic acid [1-(3,5-dichloro-pyridin-4-yl)-meth-(E)-ylidene]-hydrazide]
  Ki: 1000 to 10000 nM

## CCc1ccccc1NCC(=O)N/N=C/c1c(Cl)cncc1Cl [Example 26, (2-Ethyl-phenylamino)-acetic acid [1-(3,5-dichloro-pyridin-4-yl)-ylidene]-hydrazide]
  Ki: 1000 to 10000 nM

## CC(=O)Nc1cccc(NCC(=O)N/N=C/c2c(Cl)cncc2Cl)c1 [Example 27, N-(3-{[1-(3,5-Dichloro-pyridin-4-yl)-meth-(E)-ylidene-hydrazinocarbonylmethyl]-amino}-phenyl)-acetamide]
  Ki: 1000 to 10000 nM

## O=C(CNc1ccccc1Br)N/N=C/c1c(Cl)cncc1Cl [Example 29, (2-Bromo-phenylamino)-acetic acid [1-(3,5-dichloro-pyridin-4-yl)-meth-(E)-ylidene]-hydrazide]
  Ki: > 10000 nM

## Cc1ccccc1Oc1ccccc1NCC(=O)N/N=C/c1c(Cl)cncc1Cl [Example 30, (^2-o-Tolyloxy-phenylamino)-acetic acid [1-(3,5-dichloro-pyridin-4-yl)-meth-(E)-ylidene]-hydrazide]
  Ki: > 10000 nM

## O=C(CNc1cccc(-n2cncn2)c1)N/N=C/c1c(Cl)cncc1Cl [Example 31, (3-[1,2,4]Triazol-1-yl-phenylamino)-acetic acid [1-(3,5-dichloro-pyridin-4-yl)-meth-(E)-ylidene]-hydrazide]
  Ki: > 10000 nM

## O=C(CNc1cccc(OCCN2CCOCC2)c1)N/N=C/c1c(Cl)cncc1Cl [Example 32, [3-(2-Morpholin-4-yl-ethoxy)-phenylamino]-acetic acid [1-(3,5-dichloro-pyridin-4-yl)-meth-(E)-ylidene]-hydrazide]
  Ki: 1000 to 10000 nM

## O=C(CNc1cccc(C(=O)NCCN2CCOCC2)c1)N/N=C/c1c(Cl)cncc1Cl [Example 33, 3-{[1-(3,5-Dichloro-pyridin-4-yl)-meth-(E)-ylidene-hydrazinocarbonylmethyl]-amino}-N-(2-morpholin-4-yl-ethyl)-benzamide]
  Ki: 10 to 100 nM

## O=C(CNc1cccc(-n2cccn2)c1)N/N=C/c1c(Cl)cncc1Cl [Example 34]
  Ki: > 10000 nM

## Cc1ccc(Oc2cccc(NCC(=O)N/N=C/c3c(Cl)cncc3Cl)c2)cc1 [Example 35, (3-p-Tolyloxy-phenylamino)-acetic acid [1-(3,5-dichloro-pyridin-4-yl)-meth-(E)-ylidene]-hydrazide]
  Ki: 1000 to 10000 nM

## O=C(CNc1ccc(Br)cc1)N/N=C/c1ccncc1 [Example 36, (4-Bromo-phenylamino)-acetic acid [1-pyridin-4-yl-meth-(E)-ylidene]-hydrazide]
  Ki: 1000 to 10000 nM
